Laboratory results from patent US10519107B2, “Sulfonamide compounds and their use as STAT5 inhibitors” (Governing Council of the University of Toronto, priority 2014, dated 2019).
“Also recorded” adds a separate entry of the source.

Assays:
[1] = system: MCL-1, MYC, cleaved PARP-1, Caspase-3; assay: Western blotting of apoptosis markers and STAT5 transcriptional targets in K562 cells
Method: Proteins were extracted using RIPA buffer with protease and phosphates inhibitors and a careful protein determination were preformed (BCA protein assay kit, Pierce). […] The membranes were blocked with 5% nonfat milk for at least 1 h followed by an overnight incubation in primary antibody.
(§2) Downstream of STAT5, modulation of the STAT5 transcriptional targets, MCL-1, CYCLIND1/D2 and MYC was assessed.

pSTAT5 = assay: Western blotting of pSTAT5 in MV-4;11 cells; format: cell-based, Human
Excerpt: (§1) Correspondingly, western blot analysis for protein levels of pSTAT5 and downstream target gene expression were also investigated within the AML cell line, MV-4; 11.

[2] = format: in vitro ADME; conditions: mouse
Excerpt: Within these studies, a series of phase I and phase II metabolites within mouse hepatocytes were identified. […] Each peak from the initial mass spectrum is rerun through a tandem mass spec to identify the major peak along with the corresponding fractionation patterns of that metabolite. […] Peak 2 on the other hand is a combination of both phase I and phase II metabolism. […] Most likely, we deduced the acetylation is occurring at the acid position of the salicylic acid moiety, FIG. 11.
Based on the fragmentation pattern, the most likely site of oxidation could reside on the glycine core or the benzyl ring of the salicylic acid, FIG. 12.

[3] = HPLC stability with excess glutathione tripeptide; format: in vitro ADME; conditions: 100 μM compound, 10 mM glutathione, HEPES buffer, 20 h
Excerpt: Considering the structure of 13a, the pentafluorobenzene is the functional moiety that is likely most susceptible to nucleophilic attack from the GST enzyme. Specifically, the para position is highly electron withdrawn enabling for nucleophilic aromatic substitution to take place. […] Data points obtained with the analytical HPLC experiments were fit using ORIGIN software using an exponential decay equation. This equation models for chemical/biological processes whereby a rate in which something happens is proportional to the amount left. Each drug molecule has a certain probability of being metabolized in a small time interval. Thus, as a drug concentration goes down, the rate of its metabolism goes down as well.

wildtype STAT1 protein = target: T1, wildtype STAT1 protein (Homo sapiens, UniProt P42224); assay: Fluorescence polarization competitive binding, STAT1; conditions: FP; read-out: IC50, disruption of phosphopeptide-STAT1 complex
T1 sequence (P42224 1-750): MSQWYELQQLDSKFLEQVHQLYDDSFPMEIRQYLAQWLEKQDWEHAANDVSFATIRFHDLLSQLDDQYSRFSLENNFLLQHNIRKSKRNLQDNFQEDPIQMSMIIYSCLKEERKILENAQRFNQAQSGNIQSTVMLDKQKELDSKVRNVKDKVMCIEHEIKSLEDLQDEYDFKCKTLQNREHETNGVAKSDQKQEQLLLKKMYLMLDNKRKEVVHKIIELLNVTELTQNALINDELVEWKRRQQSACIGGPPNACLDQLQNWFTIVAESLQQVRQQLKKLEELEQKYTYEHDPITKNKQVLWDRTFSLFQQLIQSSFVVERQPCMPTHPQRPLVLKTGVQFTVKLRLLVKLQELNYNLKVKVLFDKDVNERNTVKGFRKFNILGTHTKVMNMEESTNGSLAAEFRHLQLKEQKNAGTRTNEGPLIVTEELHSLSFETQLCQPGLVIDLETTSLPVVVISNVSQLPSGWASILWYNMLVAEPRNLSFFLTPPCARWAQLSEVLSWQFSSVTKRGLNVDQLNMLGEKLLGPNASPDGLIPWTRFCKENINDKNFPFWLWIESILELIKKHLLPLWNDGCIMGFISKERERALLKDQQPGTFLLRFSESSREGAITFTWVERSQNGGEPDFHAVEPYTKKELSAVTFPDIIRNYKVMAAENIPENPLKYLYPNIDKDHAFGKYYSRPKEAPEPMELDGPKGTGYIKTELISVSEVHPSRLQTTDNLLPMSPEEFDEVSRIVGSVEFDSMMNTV

[4] = Metabolic stability in pooled human liver s9 fractions with NADPH; format: in vitro ADME; conditions: 60 min
Method: For the pooled s9 fractions, solution of the s9 fraction along with NADPH was added to each well. […] The positive control used in the assay was Verapamil, a known drug to be metabolized by liver enzymes. The reaction was started by the addition of 13a and performed in duplicate. Aliquots were taken from the reaction solution at 0 min and 60 min. The reaction was stopped by the addition of cold methanol. Samples were then analyzed through LC-MS/MS to determine the metabolic profile.

[5] = system: healthy human CD34+ umbilical cord cells; assay: Cell viability, healthy CD34+ umbilical cord cells; format: cell-based
MCL-1, cleaved PARP-1 = assay: Western blotting of apoptosis and MCL-1 in MV-4;11 cells; format: cell-based, Human
Excerpt: as §1

[6] = system: phosphorylated STAT3 (Tyr 705); assay: Western blotting of pSTAT3 in MDA-MB-231 cells; format: cell-based
Method: Proteins were extracted using RIPA buffer with protease and phosphates inhibitors and a careful protein determination were preformed (BCA protein assay kit, Pierce). In each assay, 30 μg of clarified whole cell extract were resolved on a 10% polyacrylamide-SDS gel and transferred to a nitrocellulose membrane (Bio-Rad). The membranes were blocked with 5% nonfat milk for at least 1 h followed by an overnight incubation in primary antibody.
Immunodetection was performed using antibodies against the total STAT5 (Cell Signaling #9363), phosphorylated STAT5 (Tyr 694) (Cell Signaling, cat. #9359), total STAT3 (Cell Signaling #4904) and phosphorylated STAT3 (Tyr 705) (Cell Signaling #9661), Cleaved Caspase-3 (Asp175) (Cell Signaling #9661), Cleaved-Parp-1 (ab72805) Anti-Cyclin D1 (Abcam ab16663), Anti-Cyclin-D2 (Abcam ab94685), Anti-c-Myc (Abcam ab32072) and β-actin (Cell Signaling #3700) as a loading control, followed by fluorescent conjugated goat secondary antibodies Alexa Fluor 488 (Cell Signaling #4408) and Alexa Fluor 647.
as §2

CC(C)(C)c1cc(CN(C(=O)CN(Cc2ccc(Cl)cc2)S(=O)(=O)c2c(F)c(F)c(F)c(F)c2F)c2ccc(C(=O)O)c(O)c2)cc(C(C)(C)C)c1 [Compound 13a, 4-(2-((N-(4-chlorobenzyl)-2,3,4,5,6-pentafluorophenyl)sulfonamido)-N-(3,5-di-tert-butylbenzyl)acetamido)-2-hydroxybenzoic Acid]
MYC (c-MYC) expression ([1]; K562, 5 hrs): dose-dependant decreases; also recorded: dose-dependent decreases | MCL-1 expression ([1]; K562, 24 hrs, 15 μM): complete knockdown | apoptosis (cleaved PARP-1, Caspase-3) ([1]; K562, 24 hrs, 15 μM): undergo cell death | pSTAT5 level (pSTAT5; MV-4;11, 5 h): dose-dependent decrease | pSTAT5 phosphorylation (pSTAT5; MV-4;11, 24 h, 10 μM): complete ablation | intact compound recovered ([2]; 240 min): majority of intact 13a is recovered | glutathione derivatives, collective share of metabolites recovered ([2]; 4 h): 10% | parent compound recoverable ([2]; 4 h): > 85% | stability to glutathione conjugation [3]: stable to glutathione conjugation | IC50 (wildtype STAT1 protein): > 150 µM | recovered in human liver s9 (HLS9) fractions [4]: 59.82% | effect on cell viability of healthy CD34+ cells ([5]; 10 μM): little reduction in cell viability; also recorded: little effect | difference in sensitivity CD34+ vs MV-4;11 cells ([5]; therapeutic window): approximate order of magnitude difference | downstream target MCL-1 (MCL-1, cleaved PARP-1; MV-4;11, 10 μM, 24 h): complete knockdown | apoptosis (MCL-1, cleaved PARP-1; MV-4;11, 24 h): initiation of apoptosis was observed | pSTAT3 inhibition ([6]; MDA-MB-231, doses corresponding to STAT5 inhibition): not inhibited | total STAT3 and STAT5 protein levels ([6]; MDA-MB-231 and leukemic cell line): neither total STAT3 or STAT5 protein levels were affected
